Reference: patent publication US6645504B1, “Bystander suppression of type I diabetes by oral administration of glucagon” (AutoImmune Inc., priority 1987, dated 2003)
Where no end group is shown, it is not given here.

Legend:
[1] = tested on: OVA (responder) line; experiment: Transwell triggering of suppression by MBP peptides; type: cell-based, rats; conditions: peptide added to modulator well with spleen cells of MBP-fed animals; FIG. 11
Text: Transwell Cultures. A dual chamber transwell culture system (Costar, Cambridge, Mass.), which is 24.5 mm in diameter and consists of two compartments separated by a semi-permeable polycarbonate membrane, with a pore size of 0.4 μm, was used. The two chambers are 1 mm apart, allowing cells to be coin-cubated in close proximity without direct cell-to-cell contact. To measure in vitro suppression of proliferative responses in transwell cultures, 5×10^4 MBP- or OVA-specific line cells, raised and maintained as previously described (Ben-Nun, A. et al., Eur. J. Immunol. 11:195, 1981), were cultured with 10^6 irradiated (2,500 rad) thymocytes, in 600 μl of proliferation media in the lower well. Spleen cells from orally tolerized rats or controls (fed BSA) were added to the upper well (5×10^5 cells in 200 μl). Spleen cells were removed 7-14 days after the last feeding, and a single cell suspension was prepared by pressing the spleens through a stainless steel mesh. MBP and OVA (50 μg/ml) were added in a volume of 20 μl. […] In some experiments, modulator cells were added in the lower well together with responder cells, and in these instances modulator cells were irradiated (1,250 rad) immediately before being placed in culture. Proliferation media consisted of RPMI 1640 (Gibco Laboratories, Grand Island, N.Y.) supplemented with […] 2-mercaptoethanol, 1% sodium pyruvate, 1% penicillin and streptomycin, 1% glutamine, 1% HEPES buffer, 1% nonessential amino acids, and 1% autologous serum. Each transwell was performed in quadruplicate. The transwells were incubated at 37° C. in a humidified 6% CO2 and 94% air atmosphere for 72 hours. After 54 hours of culture, each lower well was pulsed with 4 μCi of [^3H]thymidine and at 72 hours split and reseeded to three wells in a round-bottomed 96-well plate (Costar) for harvesting onto fiberglass filters and counting using standard liquid scintillation techniques. Percent suppression =100×(1−Δ A cpm responders cultured with modulators/Δ cpm of responders).
The Transwell System of Example 2 above was used to identify the epitopes present on guinea pig MBP which induce the release of TGF-β from suppressor T-cells.
Peptides corresponding to guinea pig MBP residue nos.

[2] = tested on: EAE; experiment: EAE induced by guinea pig MBP 71-90, feeding of MBP peptides; type: in vivo, Lewis rats; conditions: fed; FIG. 14
Experimental: The effects of feeding various peptides to Lewis rats induced for EAE by guinea pig MBP residue nos. 71-90 (the major immunodominant epitope of guinea pig MBP as shown in Example 3 above) were also studied.
EAE was induced by immunizing with 0.25 mg of guinea pig MBP amino acid residue nos 71-90 in Complete Freund's Adjuvant and the effect of feeding various guinea pig MBP peptides on EAE was examined.

[3] = tested on: DTH responses; experiment: DTH responses in animals fed MBP or MBP peptides; type: in vivo, Lewis rats; conditions: FIG. 15
Text: Guinea pig MBP peptide 131-150 was ineffective in this case. Peptides were also fed with STI which prevents their breakdown by gastric juices and enhances their biological effect. DTH responses to whole MBP were suppressed by feeding MBP or any one of the MBP-peptides 21-40, or 71-90.

[4] = tested on: EAE; experiment: I.V. tolerization with MBP and MBP peptides in EAE induced with whole guinea pig MBP; type: in vivo, SJL/J mice; conditions: days 8 and 9 post immunization, FIG. 16
Text: FIG. 16 is a bar graph showing the effect of intravenous tolerization with MBP and disease inducing and non-inducing fragments thereof on induced EAE expression in SJL/J mice.
Finally, the suppression of EAE by I.V. tolerization with MBP and MBP peptides prior to disease expression (on days 8 and 9 post immunization) was examined.

[5] = tested on: insulitis; experiment: Suppression of insulitis in NOD mice by oral administration; type: in vivo; conditions: fed orally; for Insulitis Score: amount (mg) per Table 5, sacrificed at ten weeks of age
Experimental: NOD mice (Taconic Labs) were fed one mg of glucagon, or one mg of porcine insulin (both commercially purchased) or equal molar amounts of insulin A-chain, B-chain and B-chain peptides described below (all insulin fragments having been synthesized) twice weekly for five weeks and sacrificed at ten weeks of age.
Control animals were fed a non-pancreatic (i.e., unrelated) peptide, GAP. Insulitis was measured as a semiquantitative insulitis score according to the method described in Zhang, Z. J., PNAS(USA), 88:10252-10256, 1991.
The insulin B-chain peptides corresponded to amino acid residues 1-12 (B1-12), 10-22 (B10-22), 11-30 (B11-30) and 23-30 (B23-30). All animals were fed 10 times over three weeks.

[6] = tested on: EAE; experiment: EAE induced with PLP peptide 140-160, oral vs. I.V. administration; type: in vivo, SJL/J mice; conditions: 0.25 mg every other day
Experimental: 2. Fed Mouse MBP (0.25 mg)
3. Fed Bovine PLP (0.25 mg)
4. Inject I.V. Histone (0.25 mg)
5. Inject I.V. MBP (0.25 mg)
6. Inject I.V. PLP (0.25 mg)
Each group was treated every other day for 7 days. In the intravenous group, the material was injected into the eye plexus. The PLP peptide used was the disease inducing fragment 140-160 of bovine PLP. This peptide has the amino acid sequence H2N-[…]-CO2H (SEQ. ID NO: 13), representing the foregoing amino acid residues.

Molecule: guinea pig MBP 21-40: peptide corresponding to guinea pig MBP amino acid residues 21-40 (MDHARHGFLPRHRDTGILDS; UniProt P25188 21-40, looked up, fragment)
- triggering suppression of proliferation in the transwell system [1]: capable of triggering suppression of proliferation
- down-regulation of EAE induced by guinea pig MBP 71-90 [2]: equally effective in down-regulating EAE
- DTH responses to guinea pig MBP peptide 71-90 [3]: not affected
- DTH responses to whole MBP [3]: suppressed
- suppression of EAE induced with whole guinea pig MBP [4]: ineffective in suppressing EAE

Molecule: B1-12: insulin B-chain peptide, amino acid residues 1-12 (FVNQHLCGSHLV; ends and bridges not checked; UniProt P01308 25-36, looked up, fragment)
- suppression of insulitis (in words) [5]: suppressed insulitis
- Insulitis Score [5]: 1.76

Molecule: glucagon [reference compound]
- suppression of insulitis (in words) [5]: effective in suppressing insulitis
- Insulitis Score [5]: 1.81

Molecule: guinea pig MBP 131-150: Guinea pig MBP peptide 131-150 (DYKSKGFKGAHDAQGTLSKI; UniProt P25188 131-150, looked up, fragment)
- down-regulation of EAE induced by guinea pig MBP 71-90 [2]: ineffective
- suppression of EAE induced with whole guinea pig MBP [4]: ineffective in suppressing EAE

Molecule: B10-22: insulin B-chain peptide, amino acid residues 10-22 (HLVEALYLVCGER; ends and bridges not checked; UniProt P01308 34-46, looked up, fragment)
- suppression of insulitis (in words) [5]: suppressed insulitis
- Insulitis Score [5]: 1.71

Molecule: guinea pig MBP 101-120: peptide corresponding to guinea pig MBP amino acid residues 101-120 (SQGKGRGLSLSRFSWGAEGQ; UniProt P25188 101-120, looked up, fragment)
- triggering suppression of proliferation in the transwell system [1]: capable of triggering suppression of proliferation

Molecule: A-Chain: insulin A-chain, synthesized
- suppression of insulitis (in words) [5]: suppressed insulitis
- Insulitis Score [5]: 1.88

Molecule: B11-30: insulin B-chain peptide, amino acid residues 11-30 (LVEALYLVCGERGFFYTPKT; ends and bridges not checked; UniProt P01308 35-54, looked up, fragment)
- suppression of insulitis (in words) [5]: suppressed insulitis
- Insulitis Score [5]: 1.44

Molecule: B-Chain: insulin B-chain, synthesized
- suppression of insulitis (in words) [5]: suppressed insulitis
- Insulitis Score [5]: 1.32

Molecule: B23-30: insulin B-chain peptide, amino acid residues 23-30 (GFFYTPKT; Insulin B chain; UniProt P01308 47-54, looked up, fragment)
- suppression of insulitis (in words) [5]: did not
- Insulitis Score [5]: 2.22

Molecule: guinea pig MBP 51-70: peptide corresponding to guinea pig MBP amino acid residues 51-70 (APKRGSGKDSHHAARTTHYG; UniProt P25188 51-70, looked up, fragment)
- triggering suppression of proliferation in the transwell system [1]: capable of triggering suppression of proliferation

B1: bovine PLP: Bovine proteolipid protein (protein, listed as Bos taurus)
chain: GLLECCARCLVGAPFASLVATGLCFFGVALFCGCGHEALTGTEKLIETYFSKNYQDYEYLINVIHAFQYVIYGTASFFFLYGALLLAYGFYTTGAVRQIFGDYKTTICGKGLSATVTGGQKGRGSRGQHQAHSLERVCHCLGKWLGHPDKFVGITYALTVVWLLVFACSAVPVYIYFNTWTTCQSIAAPSKTSASIGTLCADARMYGVLPWNAFPGKVCGSNLLSICKTAEFQMTFHLFIAAFVGAAATLVSLVTFMIAATYNFAVLKLMGRGTKF
- suppression of PLP-peptide-induced EAE ([6]; administered intravenously, FIG. 13): effective in suppressing EAE
- suppression of PLP-peptide-induced EAE ([6]; orally administered, FIG. 12): equally effective in down-regulating PLP-peptide-induced EAE

B2: mouse MBP: Mouse myelin basic protein (protein, UniProt P04370 1-250, looked up)
Myelin basic protein: MGNHSGKRELSAEKASKDGEIHRGEAGKKRSVGKLSQTASEDSDVFGEADAIQNNGTSAEDTAVTDSKHTADPKNNWQGAHPADPGNRPHLIRLFSRDAPGREDNTFKDRPSESDELQTIQEDPTAASGGLDVMASQKRPSQRSKYLATASTMDHARHGFLPRHRDTGILDSIGRFFSGDRGAPKRGSGKDSHTRTTHYGSLPQKSQHGRTQDENPVVHFFKNIVTPRTPPPSQGKGGRDSRSGSPMARR
- suppression of PLP-peptide-induced EAE ([6]; orally administered, FIG. 12): equally effective in down-regulating PLP-peptide-induced EAE
